Measured values published in patent US20070078263A1, “BIARYL SUBSTITUTED HETEROCYCLE INHIBITORS OF LTA4H FOR TREATING INFLAMMATION” (deCODE Chemistry, Inc., priority 2005, published 2007).
Structures can show the parent of a compound that is named as a salt. Where two headings read alike, the source gives them in different places.

Legend:
human LTA4 hydrolase = target: T1, human LTA4 hydrolase (Homo sapiens, UniProt P09960); assay: In vitro assay testing inhibitory activity against purified recombinant human LTA4 hydrolase (LTB4 formed, LC-MS/MS); type: biochemical;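 further: 200 nM enzyme preincubated 10 min at room temperature with serial inhibitor dilutions in pH 8.0 Tris buffer with BSA and 10% DMSO, then 2 µM LTA4 added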
T1 construct: A human LTA4 hydrolase full-length cDNA clone (NM 000895) was purchased; His tag (6xHis of vector pDEST17); made in house; host or cells: Escherichia coli BL21-AI
T1 sequence (P09960 1-611): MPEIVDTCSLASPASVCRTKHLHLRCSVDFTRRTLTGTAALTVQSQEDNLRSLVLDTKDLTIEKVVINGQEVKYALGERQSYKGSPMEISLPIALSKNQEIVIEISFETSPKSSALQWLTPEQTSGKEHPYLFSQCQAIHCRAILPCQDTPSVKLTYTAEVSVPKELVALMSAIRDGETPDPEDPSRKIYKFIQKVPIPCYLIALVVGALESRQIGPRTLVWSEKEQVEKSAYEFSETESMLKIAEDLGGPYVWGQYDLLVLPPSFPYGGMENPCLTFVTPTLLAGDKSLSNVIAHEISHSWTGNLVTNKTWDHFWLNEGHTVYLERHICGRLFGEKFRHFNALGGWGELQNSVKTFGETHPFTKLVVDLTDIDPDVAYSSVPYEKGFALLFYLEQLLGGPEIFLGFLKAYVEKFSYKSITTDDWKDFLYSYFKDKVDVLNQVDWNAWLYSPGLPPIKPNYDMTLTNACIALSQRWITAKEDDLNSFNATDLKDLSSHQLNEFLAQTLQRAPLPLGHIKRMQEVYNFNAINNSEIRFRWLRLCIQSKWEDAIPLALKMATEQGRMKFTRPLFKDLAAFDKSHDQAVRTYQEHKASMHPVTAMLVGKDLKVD

human whole blood = assay: Ex vivo assay testing inhibitory activity in human whole blood after stimulation with calcium ionophore (LTB4 ELISA); type: cell-based; settings: Ionomycin 20 μM, read-out: hWBIC50;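 further: heparinized human blood preincubated 15 min at 37 °C with compound, then ionomycin-stimulated for 30 min, LTB4 in plasma supernatant quantified by ELISA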
Protocol: (2) Ex vivo assay testing inhibitory activity in human whole blood after stimulation with calcium ionophor.
Human blood was collected in heparin-containing Vacutainer tubes. […] Then 4 μl of a series of compound dilutions (in DMSO) were added, followed by a 15 min incubation at 37° C. with gentle shaking. After that, blood samples were stimulated by adding Ionomycin (Calbiochem) to a final concentration of 20 μM. After another incubation at 37° C. for 30 min, samples were centrifuged for 5 min at 1800 g and 4° C. Supernatants were taken and LTB4 concentrations were determined using a commercially available enzyme-linked immunosobentassay (R&D Systems, Minneapolis, Minn.) according to the manufacturer's instructions.

[1] = tested on: ionophore-induced LTB4 production; settings: oral administration; cited from earlier work
[2] = tested on: ionophore-induced LTB4 production; settings: oral administration; cited from earlier work; remark: listed apart in the source
primate model = settings: eight weeks of treatment; cited from earlier work
[3] = recombinant human LTA4 hydrolase 200 nM, LTA4 2 μM, read-out: AvgIC50

| SMILES | IC50 (human whole blood) [µM] | IC50 (human LTA4 hydrolase; [3]) [µM] | also measured |
| --- | --- | --- | --- |
| c1ccc(-c2ccc(Oc3ccc(OC[C@H]4CCCCN4)cc3)cc2)cc1 [Example 54, (R)-2-[4-(Biphenyl-4-yloxy)-phenoxymethyl]-piperidine hydrochloride] | < 5 | – | IC50 (human LTA4 hydrolase): < 5 µM |
| FC(F)(F)c1ccc(Oc2ccc(OC[C@H]3CCCCN3)cc2)cc1 [Example 55, (R)-2-[4-(4-Trifluoromethyl-phenoxy)-phenoxymethyl]-piperidine hydrochloride] | < 5 | < 5 | – |
| Clc1ccc(Oc2ccc(OC[C@@H]3CCCCN3)cc2)cc1 [Example 56, (S)-2-[4-(4-Chloro-phenoxy)-phenoxymethyl]-piperidine hydrochloride] | < 5 | < 5 | – |
| Fc1ccc(Oc2ccc(OC[C@@H]3CCCCN3)cc2)cc1 [Example 57, (S)-2-[4-(4-Fluoro-phenoxy)-phenoxymethyl]-piperidine hydrochloride] | < 5 | < 5 | – |
| COC(=O)CCCN1CCCC[C@H]1COc1ccc(Oc2ccc(Cl)cc2)cc1 [Example 60, 4-{(S)-2-[4-(4-Chloro-phenoxy)-phenoxymethyl]-piperidin-1-yl}-butyric acid methyl ester] | < 5 | < 5 | – |
| O=C(O)CCCN1CCCC[C@H]1COc1ccc(Oc2ccc(Cl)cc2)cc1 [Example 61, 4-{(S)-2-[4-(4-Chloro-phenoxy)-phenoxymethyl]-piperidin-1-yl}-butyric acid hydrochloride] | < 5 | – | IC50 (human LTA4 hydrolase): < 5 µM |
| Clc1ccc(Cc2ccc(OC[C@@H]3CCCN3)cc2)cc1 [Example 64, (S)-2-[4-(4-Chloro-benzyl)-phenoxymethyl]-pyrrolidine hydrochloride] | < 5 | < 5 | – |
| O=C(O)CCC[N+]1([O-])CCC[C@H]1COc1ccc(Oc2ccc(Cl)cc2)cc1 (stereo partly drawn) [Example 70, 4-{(S)-2-[4-(4-Chloro-phenoxy)-phenoxymethyl]-1-hydroxy-pyrrolidin-1-yl}-butyric acid] | 5 to 20 | < 5 | – |
| c1cncc(-c2ccc(Oc3ccc(OC[C@H]4CCCN4)cc3)cc2)c1 [Example 87, 3-{4-[4-((R)-1-Pyrrolidin-2-ylmethoxy)-phenoxy]-phenyl}-pyridine hydrochloride salt] | < 5 | < 5 | – |
| O=C(O)CCCN1CCC[C@@H]1COc1ccc(Oc2ccc(-c3cnco3)cc2)cc1 [Example 88, 4-{(R)-2-[4-(4-Oxazol-5-yl-phenoxy)-phenoxymethyl]-pyrrolidin-1-yl}-butyric acid] | < 5 | < 5 | – |
| c1ccc(COc2ccc(OC[C@H]3CCCN3)cc2)cc1 [Example 90, (R)-2-(4-Benzyloxy-phenoxymethyl)-pyrrolidine hydrogen chloride salt] | < 5 | < 5 | – |
| c1ccc2sc(Oc3ccc(OC[C@H]4CCCN4)cc3)nc2c1 [Example 100, (R)-2-[4-(Benzothiazol-2-yloxy)-phenoxymethyl]-pyrrolidine-Hydrogen chloride salt] | < 5 | < 5 | – |
| c1ccc2sc(Cc3ccc(OC[C@H]4CCCN4)cc3)nc2c1 [Example 104, 2-[4-((R)-1-Pyrrolidin-2-ylmethoxy)-benzyl]-benzothiazole-hydrogen chloride salt] | < 5 | < 5 | – |
| Brc1ccc(Cc2ccc(OC[C@H]3CCCN3)cc2)cc1 [Example 105, (R)-2-[4-(4-Bromo-benzyl)-phenoxymethyl]-pyrrolidine hydrogen chloride salt] | < 5 | < 5 | – |
| Ic1ccc(Cc2ccc(OC[C@H]3CCCN3)cc2)cc1 [Example 106, (R)-2-[4-(4-Iodo-benzyl)-phenoxymethyl]-pyrrolidine Hydrogen chloride salt] | < 5 | < 5 | – |
| c1csc(-c2ccc(Cc3ccc(OC[C@H]4CCCN4)cc3)cc2)c1 [Example 107, (R)-2-[4-(2-thiophen-benzyl)-phenoxymethyl]-pyrrolidine hydrogen chloride salt] | < 5 | < 5 | – |
| c1cc(-c2ccc(Cc3ccc(OC[C@H]4CCCN4)cc3)cc2)co1 [Example 108, (R)-2-[4-(3-Furan-benzyl)-phenoxymethyl]-pyrrolidine hydrogen chloride salt] | < 5 | < 5 | – |
| c1coc(-c2ccc(Cc3ccc(OC[C@H]4CCCN4)cc3)cc2)c1 [Example 109, (R)-2-[4-(2-Furan-benzyl)-phenoxymethyl]-pyrrolidine hydrogen chloride salt] | < 5 | < 5 | – |
| Cc1ccc(-c2ccc(Cc3ccc(OC[C@H]4CCCN4)cc3)cc2)s1 [Example 110, (R)-2-{4-[4-(5-methyl-thiophen-2-yl)-benzyl]-phenoxymethyl}-pyrrolidine hydrogen chloroide salt] | 5 to 20 | < 5 | – |
| Clc1ccc(-c2ccc(Cc3ccc(OC[C@H]4CCCN4)cc3)cc2)s1 [Example 111, (R)-2-{4-[4-(5-chloro-thiophen-2-yl)-benzyl]-phenoxymethyl}-pyrrolidine hydrogen chloroide salt] | < 5 | < 5 | – |
| O=C(O)CCCN1CCC[C@@H]1COc1ccc(Cc2ccc(-c3ccsc3)cc2)cc1 [Example 112, 4-{(R)-2-[4-(4-Thiophen-3-yl-benzyl)-phenoxymethyl]-pyrrolidin-1-yl}-butyric acid hydrogen chloride salt] | < 5 | < 5 | – |
| O=C(O)CCCN1CCC[C@@H]1COc1ccc(Cc2ccc(-c3cccs3)cc2)cc1 [Example 113, 4-{(R)-2-[4-(4-Thiophen-2-yl-benzyl)-phenoxymethyl]-pyrrolidin-1-yl}-butyric acid hydrogen chloride salt] | < 5 | < 5 | – |
| c1cc(-c2ccc(Oc3ccc(OC[C@H]4CCCN4)cc3)cc2)cs1 [Example 130, (R)-2-[4-(4-Thiophen-3-yl-phenoxy)-phenoxymethyl]-pyrrolidine-1-hydrogen chloride salt] | < 5 | 5 to 20 | – |
| c1cnn(-c2ccc(Oc3ccc(OC[C@H]4CCCN4)cc3)cc2)c1 [Example 133, 1-{4-[4-((R)-1-Pyrrolidin-2-ylmethoxy)-phenoxy]-phenyl}-1H-pyrazole, hydrogen chloride salt] | < 5 | 5 to 20 | – |
| O=C(O)CCCN1CCC[C@@H]1COc1ccc(Oc2ccc(-n3cccn3)cc2)cc1 [Example 134, 4-{(R)-2-[4-(4-Pyrazol-1-yl-phenoxy)-phenoxymethyl]-pyrrolidin-1-yl}-butyric acid] | < 5 | 5 to 20 | – |
| c1ccc(CCc2ccc(OC[C@H]3CCCN3)cc2)cc1 [Example 135, (R)-2-(4-Phenethyl-phenoxymethyl)-pyrrolidine] | 5 to 20 | 5 to 20 | – |
| c1csc(-c2ccc(Oc3ccc(OC[C@H]4CCCN4)cc3)cc2)n1 [Example 146, 2-{4-[4-((R)-1-Pyrrolidin-2-ylmethoxy)-phenoxy]-phenyl}-thiazole hydrochloride salt] | < 5 | < 5 | – |
| c1ccc(-c2ccc(Cc3ccc(OC[C@H]4CCCN4)cc3)s2)cc1 [Example 159, (R)-2-[4-(5-Phenyl-thiophen-2-ylmethyl)-phenoxymethyl]-pyrrolidine hydrochloride salt] | < 5 | < 5 | – |
| O=C(O)CCCN1CCC[C@H]1COc1ccc(Cc2ccc(-c3ccsc3)cc2)cc1 [Example 169, 4-{(S)-2-[4-(4-Thiophen-3-yl-benzyl)-phenoxymethyl]-pyrrolidin-1-yl}-butyric acid sodium salt] | < 5 | < 5 | – |
| CN(CCCOc1ccc(Cc2ccccc2)cc1)CCC(=O)O.Cl [SC57461] | – | – | inhibition of ionophore-induced LTB4 production in mouse blood ex vivo [1]: inhibition of ionophore-induced LTB4 production; inhibition of ionophore-induced LTB4 production in rat peritoneum in vivo [2]: inhibition of ionophore-induced LTB4 production; colitis symptoms in a primate model (primate model): significantly improved colitis symptoms |
